The target in this test is T1, Bovine β-lactoglobulin (BLG) (Bos taurus, UniProt P02754).
T1 sequence (P02754 17-178): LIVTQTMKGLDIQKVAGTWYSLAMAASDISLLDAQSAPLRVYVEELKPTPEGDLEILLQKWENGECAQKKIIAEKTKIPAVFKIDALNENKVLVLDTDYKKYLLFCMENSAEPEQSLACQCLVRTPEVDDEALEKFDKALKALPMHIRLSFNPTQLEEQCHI
Kind of test: tryptophan fluorescence quenching. The class given is binding. As to conditions: PBS, pH 7.4, 37 °C; 5 μM BLG; double-log.

`CC(=O)Oc1ccccc1C(=O)O` [aspirin]: the “Kb (×10^3 M^-1)” value is listed as 2.051 × 10^3 M^-1.

Values taken from publication PMC8898184 (Drug Design, Development and Therapy, 2022).
